Assay results taken from PMC8496750, “Identification of the organic anion transporting polypeptides responsible for the hepatic uptake of the major metabolite of epyrifenacil, S‐3100‐CA, in mice” (Pharmacology Research & Perspectives, 2021).

Tests used:
[1] = target: T1, human OATP1B1 (Homo sapiens, UniProt Q9Y6L6); experiment: Uptake assay for radiolabeled substrates, human OATP1B1 expressing 293FT cells; assay type: in vitro ADME; conditions: for Ratio of uptake amount relative to the uptake into mock cells: 10‐min incubation
T1 construct: expressed in transfected cells; host or cells: 293FT cells
T1 sequence (Q9Y6L6 1-691): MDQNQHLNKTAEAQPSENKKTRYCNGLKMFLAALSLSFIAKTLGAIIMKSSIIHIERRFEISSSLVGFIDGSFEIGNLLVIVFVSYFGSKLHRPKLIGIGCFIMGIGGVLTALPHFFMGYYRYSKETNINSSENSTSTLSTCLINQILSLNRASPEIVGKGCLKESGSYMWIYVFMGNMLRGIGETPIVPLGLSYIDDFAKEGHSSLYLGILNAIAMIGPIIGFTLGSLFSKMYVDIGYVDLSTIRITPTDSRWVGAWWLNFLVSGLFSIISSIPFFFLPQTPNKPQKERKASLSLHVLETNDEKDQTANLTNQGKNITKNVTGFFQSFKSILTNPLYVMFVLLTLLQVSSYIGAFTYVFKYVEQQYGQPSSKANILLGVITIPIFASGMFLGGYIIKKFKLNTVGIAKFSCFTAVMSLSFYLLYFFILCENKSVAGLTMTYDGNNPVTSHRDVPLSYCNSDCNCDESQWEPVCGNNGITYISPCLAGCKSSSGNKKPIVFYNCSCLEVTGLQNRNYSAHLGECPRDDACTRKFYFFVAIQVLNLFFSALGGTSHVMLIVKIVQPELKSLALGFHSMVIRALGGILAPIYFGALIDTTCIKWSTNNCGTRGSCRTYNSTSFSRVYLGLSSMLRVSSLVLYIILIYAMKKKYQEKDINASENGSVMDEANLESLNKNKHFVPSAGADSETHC
Experimental: (§1) 293FT cells were purchased from Thermo Fisher Scientific, Inc.. The cells were grown in Dulbecco's modified Eagle medium (supplemented with 4.5 g/L glucose and 2 mM L‐glutamine) at 37°C, 5% CO2, and 95% humidity. The cells were passaged 3 times per week by harvesting cells using trypsin and plating at a density of 1.0 × 10^4 cells/cm^2 in a 10 cm cell culture plate for maintenance culture. The 293FT cells were detached using trypsin and re‐seeded at a density of 2.5 × 10^4 cells/cm^2 in BioCoat™ Collagen I 6‐well plates (Corning Inc.) for transfection and then treated with 1.2 μg of plasmid vector and 3.2 μl of Lipofectamine™ 2000 Transfection Reagent (Thermo Fisher Scientific, Inc.) according to the manufacturer's instructions. After a 3‐h treatment, the transfection medium was replaced with a fresh cell culture medium and incubated at 37°C with 95% humidity and 5% CO2 until ready for the assay.
(§2) Transport experiments were conducted approximately 24 h post‐transfection. The experiments were initiated by aspirating culture medium and addition of pre‐warmed radiolabeled substrate solution (final 1.0% of acetonitrile or 0.9% of ethanol in phosphate‐buffered saline (PBS[−])) to each well. After a 10‐min incubation, cells were washed twice with 1 ml of ice‐cold PBS(−) and lysed with 700 μl of 1.0 M NaOH for 3 h or more at room temperature. The lysate was transferred to a 1.5‐ml tube, and neutralized with 350 μl of 2.0 M HCl and 350 μl of 2.0% sodium dodecyl sulfate (SDS) solution. From the lysate, 1.0 ml was transferred to a vial containing 10 ml of Emulsifier Scintillator Plus to measure the radioactivity in the LSC. The protein concentration of the cell lysate was also measured using a Pierce™ BCA Protein Assay Kit (Thermo Fisher Scientific, Inc.), which was used to normalize, according to the cell number, the radioactivity in the cell lysate extract. The protein assay was performed in duplicate. Each sample type was assayed in triplicate wells, and each run was performed twice. When the difference in mean uptake between OATP expressing cells and mock cells was more than 2 times, the OATP was judged to be involved in transportation of the substrate. […] Each sample type was assayed in triplicate wells.

[2] = target: T2, mouse Oatp1b2 (Mus musculus, UniProt Q9JJL3); experiment: Uptake assay for radiolabeled substrates, mouse Oatp1b2 expressing 293FT cells; conditions: 10‐min incubation
T2 sequence (Q9JJL3 1-689): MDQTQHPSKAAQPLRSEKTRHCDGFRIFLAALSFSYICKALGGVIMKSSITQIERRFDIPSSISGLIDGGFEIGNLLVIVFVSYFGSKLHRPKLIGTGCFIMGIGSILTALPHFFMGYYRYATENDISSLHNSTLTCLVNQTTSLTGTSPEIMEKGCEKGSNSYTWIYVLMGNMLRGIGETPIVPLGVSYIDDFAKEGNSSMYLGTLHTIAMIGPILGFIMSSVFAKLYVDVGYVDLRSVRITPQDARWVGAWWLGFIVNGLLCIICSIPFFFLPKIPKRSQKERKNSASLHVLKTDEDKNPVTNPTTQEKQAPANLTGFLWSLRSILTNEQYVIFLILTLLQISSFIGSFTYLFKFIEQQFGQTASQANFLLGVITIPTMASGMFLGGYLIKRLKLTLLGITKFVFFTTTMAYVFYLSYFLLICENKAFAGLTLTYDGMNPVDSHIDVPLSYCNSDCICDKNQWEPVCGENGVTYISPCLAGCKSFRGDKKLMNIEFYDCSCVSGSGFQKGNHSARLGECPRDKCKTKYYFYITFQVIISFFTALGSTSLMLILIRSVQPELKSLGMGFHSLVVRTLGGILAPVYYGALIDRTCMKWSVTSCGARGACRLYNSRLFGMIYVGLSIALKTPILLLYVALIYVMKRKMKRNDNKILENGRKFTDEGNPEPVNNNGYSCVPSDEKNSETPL
Experimental: as §1, §2

SMILES: C[C@]12CC[C@@H]3c4ccc(OS(=O)(=O)O)cc4CC[C@H]3[C@@H]1CCC2=O [E3S, Estrone 3‐sulfate]
- Uptake, times higher than in mock cells [1]: > 50 times
- Ratio of uptake amount relative to the uptake into mock cells ([1]; Run_1, mean of 3 replicates): 69.9
- Ratio of uptake amount relative to the uptake into mock cells ([1]; Run_2, mean of 3 replicates): 81.9
- Ratio of uptake amount relative to the uptake into mock cells ([2]; Run_1): 23.8
- Ratio of uptake amount relative to the uptake into mock cells ([2]; Run_2): 19.7

SMILES: C[C@]12CC[C@@H]3c4ccc(O)cc4CC[C@H]3[C@@H]1CC[C@@H]2O[C@@H]1O[C@H](C(=O)O)[C@@H](O)[C@H](O)[C@H]1O [E217βG, Estradiol 17β‐D‐glucuronide]
- Uptake, times higher than in mock cells [1]: > 50 times
- Ratio of uptake amount relative to the uptake into mock cells ([1]; Run_1, mean of 3 replicates): 48.2
- Ratio of uptake amount relative to the uptake into mock cells ([1]; Run_2, mean of 3 replicates): 55.6
- Ratio of uptake amount relative to the uptake into mock cells ([2]; Run_1): 8.3
- Ratio of uptake amount relative to the uptake into mock cells ([2]; Run_2): 14.7

SMILES: Cn1c(C(F)(F)F)cc(=O)n(-c2cc(Oc3cccnc3OCC(=O)O)c(Cl)cc2F)c1=O [S‐3100‐CA]
- Ratio of uptake amount relative to the uptake into mock cells ([1]; Run_1, mean of 3 replicates): 5.7
- Ratio of uptake amount relative to the uptake into mock cells ([1]; Run_2, mean of 3 replicates): 6.2
- Ratio of uptake amount relative to the uptake into mock cells ([2]; Run_1): 11.7
- Ratio of uptake amount relative to the uptake into mock cells ([2]; Run_2): 6.2
